Experimental data taken from patent US9290421B2, “Hypervalent radioactive astatine or iodine compounds, and preparation methods thereof” (Institut National de la Santé de la Recherche Medicalé, priority 2010, dated 2016).

melting point: 189 to 190 °C
SMILES: Cc1ccc2c(c1)C(C(F)(F)F)(C(F)(F)F)OI2Br [Compound 5a, 1-Bromo-1,3-dihydro-5-methyl-3,3-bis(trifluoromethyl)-1,2-benziodoxole]
